Structures can show the parent of a compound that is named as a salt.
Key:
[1] = target: T1, human dopamine D3 receptors (Homo sapiens, UniProt P35462); assay: Dopamine D3 receptor binding assay ([3H]spiperone, CHO cell membranes); settings: for Ki: human D3 receptors in CHO cells, 0.2 nM [3H]spiperone, mean ± SEM, read-out: Affinity Ki (D3); for Selectivity Ki(D2)/Ki(D3): ratio of Ki(D2) to Ki(D3)
T1 construct: expressed in transfected cells
Description: (§1) Compounds synthesized in Examples A, B, C and D were assayed to test their affinity for dopamine D3 and D2 receptors.
(§2) METHODS: Dopamine D2S and D3 Receptor Binding Assays
Human D3 receptors stably expressed in CHO cells were used as described by Sokoloff et al. (Sokoloff, P. et al., Eur. J. Pharmacol. 1992, 225, 331-337). The cell line was cultured in Dulbecco's modified Eagle's medium supplemented with 2 mM glutamine, and 10% dialyzed fetal bovine serum, and were grown in an atmosphere of 5% CO2 at 37° C. (Gibco™).
(§3) Human D2S- and D3 receptors expressing cell lines were grown to confluence. The medium was removed, and the cells were washed with 10 ml PBS buffer (140 mM NaCl, 3 mM KCl, 1.5 mM KH2PO4, 8 mM Na2HPO4, pH 7.4) at 4° C. After removing the wash buffer, the cells were scraped from the flasks into 15 ml of ice-cold media, and centrifuged at 3,000 rpm for 10 minutes at 4° C. After centrifugation the medium was removed and the […] resuspended in ice-cold Tris-HCl buffer containing 5 mM MgCl2, pH 7.4 and disrupted with a Polytron and centrifuged at 20,000 rpm, for 30 minutes at 4° C. The pellet was resuspended by sonication in ice-cold Tris-HCl buffer (containing 5 mM MgCl2, pH 7.4), membrane aliquots were stored at −70° C. Determination of membrane protein was carried out by the method of Bradford (Bradford, M. M. Anal Biochem 1976, 72, 248-54).
(§4) Cell membranes containing human D2S and D3 receptors from CHO cells were thawed, rehomogenized with sonication at 4° C. in Tris-HCl, pH 7.4 containing 120 mM NaCl, 5 mM KCl, 2 mM CaCl2 and 1 mM MgCl2 (incubation buffer), and incubated with 0.2 nM [^3H]spiperone (106 Ci·mmol^−1, Amersham Biosciences, Freiburg, Germany), and drug diluted in incubation buffer. Non-specific binding was determined in the presence of 10 μM BP 897 ((Wermuth, C. G. et al. in Chem. Abstr. (Eur. Pat. 0779284, 1997)). Incubations were run at 25° C. for 120 min, and terminated by rapid filtration through PerkinElmer GF/B glass fibre filters (PerkinElmer Life Sciences, Rodgau, Germany) coated in 0.3% polyethylenimine (Sigma-Aldrich, Taufkirchen, Germany) using an Inotech cell harvester (Inotech AG, Dottikon, Switzerland). Unbound radioligand was removed with four washes of 1 ml of ice-cold 50 mM Tris-HCl buffer, pH 7.4, containing 120 mM NaCl. The filters were soaked in 9 ml Beta plate scint scintillator and counted using a PerkinElmer MicroBeta®Trilux scintillation counter (PerkinElmer Life Sciences). Competition binding data were analyzed by the software GraphPad Prism™ (2000, version 3.02, San Diego, Calif., USA), using non-linear least squares fit. For detailed screening the compounds have been tested at seven concentrations in triplicate carrying out three to five separate binding experiments for human dopamine D2S and for human dopamine D3 receptors and expressed as mean±standard error of the mean (SEM). Ki values were calculated from the IC50 values according to Cheng-Prusoff equation (Cheng, Y. C., Prusoff, W. H. Biochem. Pharmacol. 1973, 22, 3099-3108.).

[2] = target: T2, recombinant human D2(short) dopamine receptor (Homo sapiens, UniProt P14416); assay: Dopamine D2S receptor binding assay ([3H]spiperone, CHO cell membranes); settings: human D2S receptors in CHO cells, 0.2 nM [3H]spiperone, mean ± SEM; read-out: Affinity Ki (D2)
T2 construct: expressed in transfected cells; host or cells: CHO-D2S cells (per Hayes et al. 1992)
Description: as §1, §2
CHO-D2S cells, expressing the recombinant human D2(short) dopamine receptor gene, (Hayes, G. et al., J. Mol. Endocrinol. 1992, 6, 920-926) were grown in Dulbecco's modified Eagle's medium/nutrient mixture F12 1:1 mixture supplemented with 2 mM glutamine, 10% fetal bovine serum, and 10 μl·ml^−1 penicillin/streptomycin in an atmosphere of 5% CO2 at 37° C. (Gibco™, Karlsruhe, Germany).
as §3, §4

T2 sequence (P14416 1-414 isoform P14416-2): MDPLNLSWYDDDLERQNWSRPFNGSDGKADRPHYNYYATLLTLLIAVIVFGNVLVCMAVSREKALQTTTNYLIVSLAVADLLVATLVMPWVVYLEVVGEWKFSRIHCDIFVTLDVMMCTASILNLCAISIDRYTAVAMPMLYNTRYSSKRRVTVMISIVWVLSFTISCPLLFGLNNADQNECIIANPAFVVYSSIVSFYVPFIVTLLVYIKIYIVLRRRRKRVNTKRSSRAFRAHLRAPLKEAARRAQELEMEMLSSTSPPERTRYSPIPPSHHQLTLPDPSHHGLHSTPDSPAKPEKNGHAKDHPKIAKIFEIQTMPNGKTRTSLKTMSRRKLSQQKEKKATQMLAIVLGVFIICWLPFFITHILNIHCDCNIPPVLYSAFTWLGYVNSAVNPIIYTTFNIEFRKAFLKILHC
T1 sequence (P35462 whole entry): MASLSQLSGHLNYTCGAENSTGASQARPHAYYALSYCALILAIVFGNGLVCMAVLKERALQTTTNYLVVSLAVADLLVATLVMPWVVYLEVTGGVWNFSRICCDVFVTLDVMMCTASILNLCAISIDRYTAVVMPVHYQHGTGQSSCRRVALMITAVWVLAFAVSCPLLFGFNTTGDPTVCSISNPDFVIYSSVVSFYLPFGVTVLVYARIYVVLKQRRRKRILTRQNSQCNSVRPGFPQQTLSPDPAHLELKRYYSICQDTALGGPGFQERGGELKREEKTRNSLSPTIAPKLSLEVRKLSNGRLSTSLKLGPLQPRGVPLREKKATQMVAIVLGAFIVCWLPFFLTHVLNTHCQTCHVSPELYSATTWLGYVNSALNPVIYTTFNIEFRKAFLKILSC

Row | melting point [°C] | SMILES | further results
1 | 56 | CCCN(CCCCNC(=O)N1CCC(c2ccccc2)CC1)C1CCc2ncsc2C1 (centres unmarked) (as salt: salt) [Compound 64, 4-phenyl-N-(4-(propyl-(4,5,6,7-tetrahydrobenzo [d]thiazol-6-yl)amino)butyl)piperidine-1-carboxamide] | 
2 | 125 | CCCN(CCCCNC(=O)N1CCc2ccccc2C1)C1CCc2ncsc2C1 (centres unmarked) (as salt: salt) [Compound 24, 3,4-Dihydro-1H-isoquinoline-2-carboxylic acid {4-[propyl-(4,5,6,7-tetrahydro-benzothiazol-6-yl)-amino]-butyl}-amide] | 
3 | 186 | CCCN(CCN1CCN(C(=O)c2ccccc2)CC1)C1CCc2ncsc2C1 (centres unmarked) (as salt: salt) [Compound 38, [2-(4-Benzoyl-piperazin-1-yl)-ethyl]-propyl-(4,5,6,7-tetrahydro-benzothiazol-6-yl)-amine] | 
4 | 83 | CCN(CCN(CC)C1CCc2ncsc2C1)C1CCc2ncsc2C1 (centres unmarked) (as salt: salt) [Compound 33, N,N′-Diethyl-N,N′-bis-(4,5,6,7-tetrahydro-benzothiazol-6-yl)-ethane-1,2-diamine] | 
5 | 110 | CCN(CCNC(=O)c1ccc2ccccc2c1)C1CCc2ncsc2C1 (centres unmarked) (as salt: salt) [Compound 32, Naphthalene-2-carboxylic acid {2-[ethyl-(4,5,6,7-tetrahydro-benzothiazol-6-yl)-amino]-ethyl}-amide] | 
6 | 164 | CCN(CCCCN1CCN(c2ccccc2OC)CC1)C1CCc2ncsc2C1 (centres unmarked) (as salt: salt) [Compound 30, Ethyl-{4-[4-(2-methoxy-phenyl)-piperazin-1-yl]-butyl}-(4,5,6,7-tetrahydro-benzothiazol-6-yl)-amine] | 
7 | 136 | CCCN(CCOc1ccccc1)C1CCc2ncsc2C1 (centres unmarked) (as salt: salt) [Compound 69, N-(2-Phenoxyethyl)-N-propyl-4,5,6,7-tetrahydrobenzothiazol-6-amine] | 
8 | 193 | CCN(CCN1CCc2ccccc2C1)C1CCc2ncsc2C1 (centres unmarked) (as salt: salt) [Compound 31, [2-(3,4-Dihydro-1H-isoquinolin-2-yl)-ethyl]-ethyl-(4,5,6,7-tetrahydro-benzothiazol-6-yl)-amine] | 
9 | 145 | CCCN(CCCCC(=O)NC12CC3CC(CC(C3)C1)C2)C1CCc2ncsc2C1 (centres unmarked) (as salt: salt) [Compound 68, N-Adamantanyl-5-(propyl-(4,5,6,7-tetrahydrobenzothiazol-6-yl)amino)pentanamide] | 
10 | 150 | CCCN(CCCCN1CCN(c2cccc(Cl)c2Cl)CC1)C1CCc2ncsc2C1 (centres unmarked) (as salt: salt) [Compound 37, {4-[4-(2,3-Dichloro-phenyl)-piperazin-1-yl]-butyl}-propyl-(4,5,6,7-tetrahydro-benzothiazol-6-yl)-amine] | 
11 | 93 | CCCN(CCCCNC(=O)NC1Cc2ccccc2C1)C1CCc2ncsc2C1 (centres unmarked) (as salt: salt) [Compound 60, 1-Indan-2-yl-3-{4-[propyl-(4,5,6,7-tetrahydrobenzothiazol-6-yl)amino]butyl}urea] | 

Continued, compound first:

Row | SMILES | melting point [°C] | further results
12 | CCN(CCCCNC(=O)c1ccc2ccccc2c1)C1CCc2ncsc2C1 (centres unmarked) (as salt: salt) [Compound 4, Naphthalene-2-carboxylic acid {4-[ethyl-(4,5,6,7-tetrahydro-benzothiazol-6-yl)-amino]-butyl}-amide] | 120 | 
13 | CCCN(CCCCC(=O)Nc1ccc2ccccc2c1)C1CCc2ncsc2C1 (centres unmarked) (as salt: salt) [Compound 9, 5-[Propyl-(4,5,6,7-tetrahydro-benzothiazol-6-yl)-amino]-pentanoic acid naphthalen-2-ylamide] | 85 | 
14 | CCCN(CCCCNC(=O)N1CCCCC1)C1CCc2ncsc2C1 (centres unmarked) (as salt: salt) [Compound 21, Piperidine-1-carboxylic acid {4-[propyl-(4,5,6,7-tetrahydro-benzothiazol-6-yl)-amino]-butyl}-amide] | 71 | 
15 | CC#CCN(CCCCNC(=O)c1ccc2ccccc2c1)C1CCc2ncsc2C1 (centres unmarked) (as salt: salt) [Compound 8, Naphthalene-2-carboxylic acid {4-[but-2-ynyl-(4,5,6,7-tetrahydro-benzothiazol-6-yl)-amino]-butyl}-amide] | 147 | 
16 | CCN(CCCCNC(=O)c1cc2ccccc2s1)C1CCc2ncsc2C1 (centres unmarked) (as salt: salt) [Compound 12, Benzo[b]thiophene-2-carboxylic acid {4-[ethyl-(4,5,6,7-tetrahydro-benzothiazol-6-yl)-amino]-butyl}-amide] | 103 | 
17 | CCCN(CCCCNC(=O)C1CCCCC1)C1CCc2ncsc2C1 (centres unmarked) (as salt: salt) [Compound 20, Cyclohexanecarboxylic acid {4-[propyl-(4,5,6,7-tetrahydro-benzothiazol-6-yl)-amino]-butyl}-amide] | 130 | 
18 | CCCN(CCCCNC(=O)NC1CCCCC1)C1CCc2ncsc2C1 (centres unmarked) (as salt: salt) [Compound 22, 1-Cyclohexyl-3-{4-[propyl-(4,5,6,7-tetrahydro-benzothiazol-6-yl)-amino]-butyl}-urea] | 149 | 
19 | CCCN(CCCCNC(=O)C1CCc2ccccc2C1)C1CCc2ncsc2C1 (centres unmarked) (as salt: salt) [Compound 23, 1,2,3,4-Tetrahydro-naphthalene-2-carboxylic acid {4-[propyl-(4,5,6,7-tetrahydro-benzothiazol-6-yl)-amino]-butyl}-amide] | 138 | 
20 | CN(CCCCNC(=O)c1ccc2ccccc2c1)C1CCc2ncsc2C1 (centres unmarked) (as salt: salt) [Compound 3, Naphthalene-2-carboxylic acid {4-[methyl-(4,5,6,7-tetrahydro-benzothiazol-6-yl)-amino]-butyl}-amide] | 122 | 
21 | CCCN(CCCCNC(=O)c1ccccc1)C1CCc2ncsc2C1 (centres unmarked) (as salt: salt) [Compound 1, N-{4-[Propyl-(4,5,6,7-tetrahydro-benzothiazol-6-yl)-amino]-butyl}-benzamide] | 152 | 
22 | CN(CCCCNC(=O)c1cc2ccccc2s1)C1CCc2ncsc2C1 (centres unmarked) (as salt: salt) [Compound 11, Benzo[b]thiophene-2-carboxylic acid {4-[methyl-(4,5,6,7-tetrahydro-benzothiazol-6-yl)-amino]-butyl}-amide] | 105 | 
23 | CCN(CCCCNC(=O)c1ccc2ncsc2c1)C1CCc2ncsc2C1 (centres unmarked) (as salt: salt) [Compound 14, Benzothiazole-6-carboxylic acid {4-[ethyl-(4,5,6,7-tetrahydro-benzothiazol-6-yl)-amino]-butyl}-amide] | 106.5 | 
24 | CCCN(CCOc1ccccc1)C1CCc2ncsc2C1 (centres unmarked) [Compound 69, N-(2-Phenoxyethyl)-N-propyl-4,5,6,7-tetrahydrobenzothiazol-6-amine] |  | Ki [1]: 51 ± 10 nM; Selectivity Ki(D2)/Ki(D3) [1]: 91; Ki [2]: 4670 ± 1320 nM
25 | CCCN(CCCCNC(=O)NC1CCCCC1)C1CCc2ncsc2C1 (centres unmarked) [Compound 22, 1-Cyclohexyl-3-{4-[propyl-(4,5,6,7-tetrahydro-benzothiazol-6-yl)-amino]-butyl}-urea] |  | Ki [1]: 2.97 ± 1.23 nM; Selectivity Ki(D2)/Ki(D3) [1]: 1642; Ki [2]: 4870 ± 1050 nM
26 | CN(CCCCNC(=O)c1cc2ccccc2s1)C1CCc2ncsc2C1 (centres unmarked) [Compound 11, Benzo[b]thiophene-2-carboxylic acid {4-[methyl-(4,5,6,7-tetrahydro-benzothiazol-6-yl)-amino]-butyl}-amide] |  | Ki [1]: 52.6 ± 5.1 nM; Selectivity Ki(D2)/Ki(D3) [1]: 65; Ki [2]: 3390 ± 388 nM
